From US7141553B2, “A3AR agonists for the treatment of inflammatory arthritis” (Can-Fite Biopharma Ltd. Israel, priority 2002, dated 2006)

Test system: healthy men
Assay: Single dose study in healthy men, safety and tolerability
Type: in vivo, human
Settings: for maximal tolerated dose: once daily administration
Description: Two clinical studies were carried out: a single dose study and a repeat dose study. Both studies were parallel-group, double-blind, dose-rising, and placebo-controlled in design.
In the single dose study, 15 healthy men (3 groups of 5) received a single oral dose of IB-MECA (1, 5 or 10 mg) or placebo. In each group, 1 subject received placebo. In the repeated dose study, 28 healthy men (4 groups of 7) received repeated oral doses of IB-MECA (2, 3, 4 or 5 mg) or placebo every 12 h for 7 days. In each group, 2 subjects received placebo.
Healthy young men, aged 18–45 years.
In the single dose study, a solution with IB-MECA powder in 30% Cremophor RH40 (BASF) was used. In the repeated dose study, an aqueous 0.5% methylcellulose suspension (Methocel A4M Premium, The Dow Chemical Company) was used. In both studies, the study medication was taken orally as a drink, followed by 50 ml of tap water.
The following procedures were done: • Safety assesment: laboratory assessments (routine biochemistry and urinalysis), physical examination, 12-lead ECG, ambulatory ECG, pulmonary function testing (FEV1), vital signs (semi-recumbent in the single dose study; semi-recumbent and standing in the repeat dose study). Adverse events were recorded throughout both studies. • Determination of IB-MECA blood level: in the single dose study blood samples for assay of IB-MECA were taken immediately before and at 0.25, 0.5, 1, 2, 4, 8, 12, 24, and 48 h after dosing; in the repeat dose study—blood samples were taken immediately before and at 0.25, 0.5, 1, 2, 4, 8, and 12 h after dosing on Day 1, before dosing on Days 2–6, and before and at 0.25, 0.5, 1, 2, 4, 8, 12, and 24 h after dosing on Day 7.
Data from all subjects who received IB-MECA were included in the analysis of safety and tolerability (adverse events and laboratory safety variables). Numerical data and parameters were summarised using means or medians, and other descriptive statistics, according to the type and distribution of the data.

Question: What does the source list for `CNC(=O)[C@H]1O[C@@H](n2cnc3c(NCc4cccc(I)c4)ncnc32)[C@H](O)[C@@H]1O` [IB-MECA, N6-(3-iodobenzyl)-adenosine-5′-N-methyl-uronamide]?
Answer: change in resting heart rate (after single 5 mg dose, four subjects): small increase in resting heart rate; resting heart rate (after single 10 mg dose, 2 subjects, considered drug-related): up to 115 beats/min; maximal tolerated dose: about 5 mg; maximal tolerated dose (calculated on average human weight of 70 Kg): about 70 micro ram/Kg; adverse events within 12 h of dosing (single dose of 10 mg): 8; adverse events within 12 h of dosing (single doses of up to 5 mg): no adverse events; tolerability (single oral doses of up to 5 mg): safe and well tolerated
